Measurements published in patent publication US8940789B2, “Neurite elongation agent, memory-improving agent and anti-Alzheimer agent comprising 4′-demethylnobiletin or 4′-demethyltangeretin as active ingredient, and process for production of the compound” (Fuji Sangyo Co., Ltd., priority 2009, dated 2015).

Assays:
[1] = test system: nitric oxide (NO), inducible nitric oxide synthase (iNOS), and cyclooxygenase-2 (COX-2); settings: synthesized demethylated compounds compared with nobiletin per se; Non Patent Literature 3; cited from earlier work
Neuro2a = assay: Neurite elongation activity in Neuro2a neurocytes; type: cell-based; settings: 20 μM, observed under microscope two days after addition, compared with comparative controls nobiletin and tangeretin
Description: The conversion compound 1, i.e., an isolated product of 4′-demethylnobiletin, and the conversion compound 2, i.e., an isolated product of 4′-demethyltangeretin, both obtained in Example 3 above were used to study neurite elongation activities. Neuro2a was used as a neurocyte.
First, Neuro2a cells were cultured in DMEM medium containing 10% fetal bovine serum (FBS) in a 37° C. incubator with 5% CO2. The cells were subcultured every three days.
Then, the cells were inoculated in a 24′-well cell culture plate at 2×10^4/well using DMEM medium containing 5% FBS. Three hours after subculture, various test samples were added each at a concentration of 20 μM. 4′-demethylnobiletin (the product in Example 3), 4′-demethyltangeretin (the product in Example 3), nobiletin (a comparative control), and tangeretin (a comparative control) dissolved in ethanol were used as the test samples. As a control, only ethanol was used.
Then, two days after addition of the various test samples, neurite elongation activities were observed under microscope. FIG. 4 show picture images for comparing the neurite elongation activities exerted by the various test samples in cultures.

Structure (SMILES)	effect of preventing development of cancer by suppressing synthesis of NO, iNOS and COX-2 [1]	neurite elongation activity (Neuro2a)
COc1c(OC)c(OC)c2c(=O)cc(-c3ccc(O)c(O)c3)oc2c1OC [3′,4′-didemethylnobiletin]	drastically higher effect than nobiletin	–
COc1ccc(-c2cc(=O)c3c(OC)c(OC)c(OC)c(OC)c3o2)cc1O [3′-demethylnobiletin]	drastically higher effect than nobiletin	–
COc1cc(-c2cc(=O)c3c(OC)c(OC)c(OC)c(OC)c3o2)ccc1O [4′-demethylnobiletin]	drastically higher effect than nobiletin	significant neurite elongation activities
COc1c(OC)c(OC)c2c(=O)cc(-c3ccc(O)cc3)oc2c1OC [4′-demethyltangeretin]	–	significant neurite elongation activities
